Measurements taken from US9334272B2, “Derivatives of purinic and pyrimidinic antiviral agents and use thereof as potent anticancer agents” (Ramot at Tel-Aviv University Ltd., priority 2007, dated 2016).

What was measured:
phospho-H2AX (Ser139) = assay: Phospho-H2AX Western blot, U-251 cells; format: cell-based, human; settings: 60 μM, 0.5, 2 or 24 hours, peak after 2 hours
Experimental: (§1) Cell lysates or acid extracted histones were solubilized in a concentrated (×4) loading buffer (62.5 mM Tris-HCl, pH 6.8, 1% SDS, 10% glycerol v/v, 1% dithiothreitol (DTT) and 0.1 mg/ml bromophenol blue). Proteins (10-40 μg) were run on SDS-PAGE, transferred to a nitrocellulose membrane (Schleicher & Schuell, Germany) and probed with the primary antibodies, followed by incubation with a horseradish peroxidase (HRP)-goat anti-rabbit IgG or HRP-rabbit anti-mouse IgG as secondary antibodies. HRP bound to the secondary antibodies was visualized by the enhanced chemiluminescence method using the Western Blotting Luminol reagent (Santa Cruz, Calif., USA). The membrane was exposed for 5 minutes to Chemiluminescence BioMax light film (Kodak, USA) and the intensity of the bands was measured with a VersaDoc instrument with a Quantityl program (Bio-Rad, USA). The fold increase of each specific protein was determined by the ratio of band intensities of treated and untreated cells, normalized to loading control (actin or total histone H3).

acetylated histone H4 = assay: Histone H4 acetylation Western blot, U-251 cells; format: cell-based, human; settings: 2-4 hours of treatment
Experimental: For the determination of in vitro histone acetylation, 2.5-3×10^6 cells, seeded in 100 mm culture dishes, were supplemented with RPMI medium containing 10% heat inactivated FCS and were treated with the drugs the following day. At the specified times post-treatment, the cells were removed with a rubber policeman, centrifuged, washed, lysed with lysis buffer (PBS, Nonidet® NP-40 1%, sodium deoxycholate 0.5%, sodium dodecyl sulfate (SDS) 0.1%, 1 mM phenylmethylsulfonyl fluoride (PMSF), 1 mM sodium orthovanadate, and 1 μM each of leupeptin and pepstatin) and centrifuged at 10,000 g for 10 minutes at 4° C. […] The extract was then lyophilized, and protein concentration was determined with a BCA kit (Pierce, USA). […] The fold increase of acetylated histones was determined by the ratio of band intensities of treated and untreated cells or mice, normalized to loading control (total histone H3).
Cell lysates or acid extracted histones were solubilized in a concentrated (×4) loading buffer (62.5 mM Tris-HCl, pH 6.8, 1% SDS, 10% glycerol v/v, 1% dithiothreitol (DTT) and 0.1 mg/ml bromophenol blue). […] The membrane was exposed for 5 minutes to Chemiluminescence BioMax light film (Kodak, USA) and the intensity of the bands was measured with a VersaDoc instrument with a Quantityl program (Bio-Rad, USA). […]

[1] = system: rat primary cardiomyocytes; assay: ROS production (DCF-DA) in rat primary cardiomyocytes; format: cell-based
Experimental: Neonatal rat ventricular cardiomyocytes were isolated and cultured in collagen coated culture dishes as described by Shalitin et al., 1996. Growth medium contained DMEM:Ham's F12 (1:1), fetal calf serum (10%) and antibiotics. Treatment was administered to spontaneously beating cardiomyocytes 48 hours after plating.

U-251 cells = assay: Reactive oxygen species by DCF-DA FACS, U-251 cells; format: cell-based, human; settings: 2 hour treatment
Experimental: ROS levels were determined by FACS analysis of U-251 cells treated with dichlorodihydrofluorescein diacetate (DCF-DA), which becomes fluorescent when oxidized.

proteasome = biological target: T1, proteasome (Homo sapiens, UniProt P28074); assay: Proteasome activity assay, U-251 cells; format: cell-based; settings: U-251, 50 μM
T1 construct: proteasome activity in U-251 cells treated for 4 or 24 hours; endogenous in cells; host or cells: U-251 cells (lysates of treated cells)
T1 sequence (P28074 60-263): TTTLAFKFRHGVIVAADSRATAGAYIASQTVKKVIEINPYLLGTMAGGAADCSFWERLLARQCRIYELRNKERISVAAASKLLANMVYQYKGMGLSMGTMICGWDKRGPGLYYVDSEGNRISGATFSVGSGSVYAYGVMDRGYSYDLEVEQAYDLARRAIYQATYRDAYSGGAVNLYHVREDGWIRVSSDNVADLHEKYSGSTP
Experimental: The peptidase or chymotrypsin-like activity of the proteasome was assayed using N-succinyl-Leu-Leu-Val-Tyr-7-amido-4-methylcoumarin. The lysates (100 μL) were incubated with 13 (M of the substrate in 100 mM Tris, pH 7.5, for 1 hour with shaking at room temperature. The reaction was stopped by addition of ice-cold ethanol, and the samples were centrifuged for 5 minutes at 2500 g. The supernatants were collected and the fluorescence was measured with excitation/emission filters of 390/460 nm using the FluoStar fluorimeter. The protein concentration was determined using a BCATM kit (Pierce) and the proteasome activity was derived from the ratio of fluorescence at 460 nm/(g of protein. The percentage of proteasome activity was calculated relative to untreated cells.

MCF-7 cells = assay: Hoechst viability assay, MCF-7 breast carcinoma cells; format: cell-based, human
Experimental: Cells (in quadruplicate) at the specified density were suspended in 200 μL medium supplemented with 10% FCS seeded in 96-well plates for 24 hours, then exposed to the drugs for 72 hours. The viability of the cells was determined by Hoechst fluorescent assay as described by Nudelman et al., 2005. Leukemic cell viability after 72 hours of treatment was determined by an MTT (3-(4,5-dimethylthiazol-2-yl)-2,5-diphenyltetrazolium bromide) assay as described by Levovich et al., 2007.
IC50 values were determined by linear regression of the percentage of survival following drug titration.

p21 = p21 Western blot, U-251 cells; format: cell-based, human; settings: compared with Compound 12 and acyclovir
Experimental: as §1

[2] = system: 3LLD122 Lewis lung carcinoma; assay: Metastatic Lewis lung carcinoma (3LL) model; format: in vivo, mice; settings: Compound 6 30 mg/kg, Compound 7 25 mg/kg, per os thrice per week, 21 days; p<0.02 vs acyclovir
Experimental: Female C57/BL mice, 7-10 weeks old, were acclimated for ten days. All in vivo experiments were conducted according to the NIH Laboratory Animal Care Guidelines and in accordance with the guidelines and approval of the Tel Aviv University Committee for Animal Experimentation.
The subclone 3LLD122 of 3LL used in the study was selected for its aggressive and invasive nature. […] The animals were sacrificed after 21 days of treatment, their lungs were weighed, stained with Bouin's fixative and the metastatic lesions were scored double-blindly.

[3] = system: kinases which phosphorylate acyclovir; assay: Acyclovir phosphorylation (viral thymidine kinase activity) in 4T1 cell extracts; format: cell-based, murine; settings: 4T1 cells, 24 hours, 40 μM
Experimental: The mammalian thymidine kinase (TK) has a narrow specificity and acts only on thymidine. […] The lysates obtained were kept at −70 ° C. until analyzed either spectroscopically or by RT-PCR. […] The ADP is converted to ATP by pyruvate kinase when it hydrolyzes phosphoenolpyruvate (PEP) to pyruvate. Lactate dehydrogenase then converts pyruvate to lactate and NADH to NAD^+. The decrease in fluorescence emitted by NADH (excitation/emission of 320/460 nm) during 10 cycles, each lasting 1 minute, were monitored using a FluoStar fluorometer. The reaction velocity was determined by the slope of the fluorescence vs. time.

## CCCC(CCC)C(=O)Nc1nc2c(ncn2COCCOC(=O)C(CCC)CCC)c(=O)[nH]1 [Compound 6, N-valproyl-9-(2-valproyloxy)ethoxymethylguanine]
phospho-H2AX (Ser139)
  level of phosphorylated H2AX: induced an increase in the level of phosphorylated H2AX
Acetylated histone H4
  acetylation of histone H4: induced acetylation of H4
[1]; 4 hours
  production of reactive oxygen radicals (ROS): did not increase production of reactive oxygen radicals
[1]; combined with 2 μM Dox
  effect on ROS production induced by Dox: prevented the formation of ROS
U-251 cells
  level of oxidation in cells (ROS): considerably increased the level of oxidation in cells
proteasome; after 4 hours
  inhibition at 50 µM: > 50%
proteasome; after 24 hours
  inhibition at 50 µM: > 75%
MCF-7 cells; 400 μM NAC, FIG. 3b
  effect of N-acetylcysteine (NAC) on the activity of the compound: did not reduce the activity
MCF-7 cells; MCF-7 cells, Hoechst
  IC50 fold lower than that of VA: over 20 fold
MCF-7 cells; MCF-7 cells, Hoechst, acyclovir:VA 1:2
  IC50 fold lower than that of the mixture of VA and acyclovir: over 50 fold
p21
  expression of p21: induces expression of the cyclin dependent kinase inhibitor p21 more quickly and to a greater extent
[2]
  number of lung macro-lesions (anti-metastatic activity): significant anti-metastatic activity
[3]
  rate of acyclovir phosphorylation (kinase activity): increased the rate of acyclovir phosphorylation in a significant and reproducible manner
